Source: patent US10022380B2, “Treatment of solid tumours” (Vivolux AB, priority 2012, dated 2018)

How the values were obtained:
HCT116 MCS [1] = experiment: Pimonidazole staining of sectioned spheroids (indirect measure of respiration/hypoxia); format: cell-based
Description: (§1) HCT116 colon carcinoma cells were maintained in McCoy's 5A modified medium/10% fetal calf serum at 37° C. in 5% CO2. […] A cell suspension containing 10,000 cells (200 μl) was added to each well of poly-HEMA coated 96 well plates. The wells were then overfilled by adding an additional 170 μl media to acquire a convex surface curvature. Plasticine spacers (3 mm) were placed in the corners of each plate to prevent the lids from touching the media. The plates were then inverted in order to allow the cells to sediment to the liquid/air interface and incubated in gentle shaking. After 24 hrs incubation the plates were returned to normal. First excess media was removed by aspiration and then plasticine spacers. The plates were incubated for 4 days prior to drug treatment.
MCS produced by the hanging drop method in 96 well plates were fixed in paraformaldehyde, dehydrated, embedded in paraffin and sectioned. Each sample contained 32 MCS (MCS from each 96 well plate were pooled into 3 groups). The sections were deparaffinized with xylene, rehydrated and microwaved, and then incubated overnight with the monoclonal primary antibodies diluted in 1% (weight/volume) bovine serum albumin and visualized by standard avidin-biotin-peroxidase complex technique (Vector Laboratories, Burlingame, Calif., USA). Counterstaining was performed with Mayer's haematoxylin. […]

monolayer HCT116 cells = experiment: Proliferation / viability of monolayer HCT116 cells
Description: HCT116 MCS were treated for 6 hours with 6 μM CB21, followed by changing to drug-free medium and further incubation. MCS were sectioned and stained for active caspase-3. […] Cells were incubated for 30 minutes with EdU, fixed and analyzed by ArrayScan. […] Cells were seeded at 7,000 or 70,000 per well in 96 well plates in the presence or absence of CB21.
Cells were fixed and stained for LC3 after drug treatment at the times indicated. […] Cells were treated with 6 μM CB21 and/or 10 μM bafilomycin A and cells were photographed at the times Indicated. […] HCT116 cells were treated with 6 μM CB21 and/or 10 μM chloroquine. Cell proliferation was monitored by calculation of culture confluency.
HCT116 colon carcinoma cells were maintained in McCoy's 5A modified medium/10% fetal calf serum at 37° C. in 5% CO2. MCS were prepared using a modification of our previously described method (12). A cell suspension containing 10,000 cells (200 μl) was added to each well of poly-HEMA coated 96 well plates. The wells were then overfilled by adding an additional 170 μl media to acquire a convex surface curvature. […] Caspase cleaved keratin-18 (K18-Asp396) was determined using 25 mL medium/extract using the M30 CytoDeath ELISA assay (a variant of the M30-Apoptosense® ELISA (13) developed for in-vitro use (Peviva AB, Bromma, Sweden)). […]

LC3-I and LC3-II = experiment: LC3-I / LC3-II induction in HCT116 (western blot, LC3 staining); format: cell-based; conditions: for Induction of LC3-I and LC3-II: HCT116 cells
Description: FIG. 4B: Staining of CB21-treated cells with an antibody to LC3. […] Cells were treated for 6 hours (6 μM), and then incubated further. Protein were extracted and subjected to western blot analysis. […] FIGS. 4F-4H: Morphology of peripheral and core cells visualized by electron microscopy. MCS were treated for 6 hours with 6 μM C21 and incubated further in drug-free medium for the times indicated and sectioned.
MCSs contain mostly non-proliferating cells. […] The mechanism(s) of action was studied in more detail. […] LC3-II (the PE-conjugated form of LC3) is a protein marker regarded to be most reliably associated with autophagosomes (19).

HCT116 MCS [2] = format: cell-based
Description: Cell viability was determined using the acid phosphatase test.
as §1
Viability measurements were performed by the acid phosphatase (APH) method described by Friedrich et al. (14). Background activity was subtracted.

mTOR substrate 4EBP1 = experiment: Phosphorylation of mTOR substrate 4EBP1 and of AKT (western blot); conditions: HCT116 cells
Description: Cell extract proteins were resolved by Tris-Acetate PAGE gels (Invitrogen, Carlsbad, Calif.) and transferred onto a polyvinylidene difluoride (PVDF) membrane. The membranes were incubated overnight with antibodies, washed and incubated with HRP-conjugated anti-rabbit Ig (Amersham Biosciences, Little Chalfont, UK) for 1 h. Peroxidase activity was developed by SuperSignal West Pico (Pierce Biotechnology, Rockford, Ill.) according to manufacturer's instructions.

N#CC(C#N)=NNc1cccc(Cl)c1 [CCCP, carbonylcyanide-3-chlorophenylhydrazone]
Pimonidazole positive area (%) (HCT116 MCS [1]; 10 μM, 6 h): 79.9%

CCN(CC)CCCC(C)Nc1ccnc2cc(Cl)ccc12 (stereo not drawn) [CQ, Chloroquine]
proliferation / cell death of monolayer HCT116 cells (monolayer HCT116 cells; 10 μM chloroquine, 6 μM CB21, culture confluency): no effect

Cn1c(=O)n(-c2ccc(C(C)(C)C#N)cc2)c2c3cc(-c4cnc5ccccc5c4)ccc3ncc21 [NVP-BEZ235]
Induction of LC3-I and LC3-II (LC3-I and LC3-II; 6 h): weak induction
Induction of LC3-I and LC3-II (LC3-I and LC3-II; 24 h): no induction observed
viability of the cells in the core of the MCS (HCT116 MCS [2]): did not affect the viability
4EBP1 phosphorylation (mTOR substrate 4EBP1): decrease

CO[C@H]1C[C@@H]2CC[C@@H](C)[C@@](O)(O2)C(=O)C(=O)N2CCCC[C@H]2C(=O)O[C@H]([C@H](C)C[C@@H]2CC[C@@H](O)[C@H](OC)C2)CC(=O)[C@H](C)/C=C(\C)[C@@H](O)[C@@H](OC)C(=O)[C@H](C)C[C@H](C)/C=C/C=C/C=C/1C [Rapamycin]
Pimonidazole positive area (%) (HCT116 MCS [1]; 10 nM, 5 h): 42.2%

CO/C1=C\C(C)=C\[C@@H](C)[C@@H](O)[C@@H](C)C/C(C)=C/C=C/[C@H](OC)[C@@H]([C@@H](C)[C@@H](O)[C@H](C)[C@@]2(O)C[C@@H](O)[C@H](C)[C@@H](C(C)C)O2)OC1=O [bafilomycin A]
appearance of large cytoplasmic LC3-II positive vesicles (LC3-I and LC3-II; HCT116 cells treated with CB21, 10 μM Bafilomycin A): suppresses the appearance of large cytoplasmic LC3-II positive vesicles
time at which cytotoxicity was observed (monolayer HCT116 cells; HCT116, 10 μM bafilomycin A, 6 μM CB21): ~72 h
